Measurements published in patent US8058284B2, “[4-(6-halo-7-substituted-2,4-dioxo-1,4-dihydro-2H-quinazolin-3-yl)-phenyl]-5-chloro-thiophen-2-yl-sulfonylureas and forms and methods related thereto” (Portola Pharmaceuticals, Inc., priority 2005, dated 2011).
Read-outs that look alike come from different tables or passages of the source.

Experiments:
[1] = target: T1, P2Y12 receptor on platelets (Homo sapiens, UniProt Q9H244); experiment: platelet ADP receptor binding assay (ARB): inhibition of [3H]2-MeS-ADP binding to platelets; conditions: apyrase-washed human platelets
T1 construct: endogenous in cells; host or cells: human platelets, apyrase-washed: outdated from hospital blood banks, or fresh
T1 sequence (Q9H244 whole entry): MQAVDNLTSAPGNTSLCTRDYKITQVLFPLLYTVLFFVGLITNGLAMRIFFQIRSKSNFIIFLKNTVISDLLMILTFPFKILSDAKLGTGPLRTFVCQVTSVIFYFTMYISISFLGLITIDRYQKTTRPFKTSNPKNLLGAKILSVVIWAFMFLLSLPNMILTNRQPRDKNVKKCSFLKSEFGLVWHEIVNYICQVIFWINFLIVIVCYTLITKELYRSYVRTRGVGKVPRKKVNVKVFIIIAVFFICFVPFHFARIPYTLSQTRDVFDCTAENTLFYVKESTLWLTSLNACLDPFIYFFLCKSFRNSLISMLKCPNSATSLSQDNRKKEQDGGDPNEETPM
Experimental: 1. The Ability of Candidate Molecules to Inhibit the Binding of [3H]2-MeS-ADP to the P2Y12 Receptor on Platelets was Determined Using a Radioligand Binding Assay.
Utilizing this assay the potency of inhibition of such compounds with respect to [^3H]2-MeS-ADP binding to whole platelets is determined. Under the conditions described in II (3) below, the binding of [^3H]2-MeS-ADP is solely due to the interaction of this ligand with the P2Y12 receptor, in that all the specific binding measured in this assay is compatible with a P2Y12 antagonist (i.e., the specific binding is reduced to background levels by competition with an excess of P2Y12 antagonist, with no competition of binding when a P2Y1 antagonist is pre-incubated with the platelet preparation). […]
A platelet ADP receptor binding assay (ARB) using the tritiated potent agonist ligand [^3H]2-MeS-ADP (Jantzen, H. M. et al. (1999) Thromb. Hemost. 81:111-117) has been adapted to the 96-well microtiter format. […] Total binding is determined in the absence of test compounds. […] The platelet-bound radioactivity on the filtermats is determined in a scintillation counter (Microbeta 1450, Wallac Inc., Gaithersburg, Md.). Specific binding is determined by subtraction of non-specific binding from total binding, and specific binding in the presence of test compounds is expressed as % of specific binding in the absence of test compound dilutions. […]

[2] = test system: ADP-induced human platelet aggregation (human platelet-rich plasma); experiment: inhibition of ADP-mediated platelet aggregation in platelet-rich plasma (PRP assay); format: cell-based
Experimental: Platelet-rich plasma (PRP) is prepared by centrifugation of whole blood at 160×g for 20 minutes at room temperature. […] PPP is prepared by centrifugation of the remaining blood sample (after removal of PRP) for 20 minutes at 800×g. This preparation of PRP can subsequently be used for aggregation assays in either a 96-well plate or standard cuvette aggregometry.
J. Clin. Pathol. […] All steps are performed at room temperature. […] The plates are then agitated for 5 min on a microtiter plate shaker and the 5 minute reading is obtained in the plate reader. […] IC50s were derived by non-linear regression analysis.

CNc1cc2[nH]c(=O)n(-c3ccc(NC(=O)NS(=O)(=O)c4ccc(Cl)s4)cc3)c(=O)c2cc1F [Example 2]
IC50 [1]: < 0.05 µM
IC50 ([2]; Platelet): < 10 µM

CNc1cc2[nH]c(=O)n(-c3ccc(NC(=O)NS(=O)(=O)c4ccc(Cl)s4)cc3)c(=O)c2cc1Cl [Example 3, [4-(6-chloro-7-methylamino-2,4-dioxo-1,4-dihydro-2H-quinazolin-3-yl)-phenyl]-5-chloro-thiophen-2-yl-sulfonylurea]
IC50 [1]: 0.05 to 0.5 µM
IC50 [2]: 10 to 30 µM
